The values below come from PMC12013366, “In vitro evaluation of the immunogenic potential of gramicidin S and its photocontrolled analogues” (RSC Medicinal Chemistry, 2025).

Non-standard residues stand in square brackets, D forms with d. Residues, ends and D or L forms follow the SMILES beside them. Orn = NCCC[C@H](N)C(=O)O

Data set [1] deals with calreticulin (CALR) on MDA-MB-231 cells. Description: CALR exposure on the cell surface, fluorescence microscopy. The format is cell-based, human. The note with it: MDA-MB-231 monolayer; 8 and 16 μM; 24 h; Alexa Fluor 647 anti-CALR antibody, normalized to non-treated cells; n=2. Here is the method: (§1) We performed fluorescence microscopy using an Alexa Fluor 647 anti-CALR antibody for quantifying the CALR exposure on the surface of cells. Confluent monolayer 4T1, HeLa, HepG2 and MDA-MB-231 cell cultures were incubated with GS and GS-derived peptides for 24 h followed by fixation, staining with the antibody and microscopic observation. Using the images, we calculated the total levels of the fluorescence signal per cell in each sample. […] To examine the time dependence of the CALR exposure, cytofluorimetric experiments were conducted on the MDA-MB-231 cell line (Fig. 9) using an Alexa Fluor 647 anti-CALR antibody. In this experiment, 30 min, 3 h, 6 h and 24 h were the time points for monitoring the fraction of cells expressing CALR on their surface.
(§2) The cells were seeded (10 000 cells per well for 4T1; 20 000 cells per well for HeLa and MDA-MB-231; 30 000 cells per well for HepG2) in 200 μL of appropriate medium in a 96-well black-wall transparent-bottom plate (6055302, Revvity). After 24 h incubation, the medium was aspired and 100 μL of fresh medium was added. The compounds (64, 32, 16 and 8 μM for closed photoforms; 32, 16, 8 and 4 μM for open photoforms and GS) along with the negative (1% DMSO) control were prepared in DMEM and dispensed in 100 μL per well for 24 h. Then 50 μL of 20% paraformaldehyde (28908, Thermo Fisher) was added for 15 min for fixation. […]

In data set [2] the test system is calreticulin (CALR) on HepG2 cells. Described as above. The format is cell-based, human. The conditions noted are these: HepG2 monolayer; 32 μM; 24 h; Alexa Fluor 647 anti-CALR antibody, normalized to non-treated cells; n=2. The method, then:
as §1, §2

Data set [3] can be described thus: Cytotoxicity, three-dimensional (spheroid) assay. The conditions noted are these: human, HEK-293 spheroids, calcein-AM/PI/Hoechst 33342 confocal imaging, Table S3 (with LMB033), ± SEM, n=5, read-out: IC50, cytotoxic activity, three-dimensional (spheroid) assay. The format is cell-based. From the text: (§3) For the experiments with the three-dimensional (3D) cultures, we used a 384-well plate format and applied the protocol introduced by Sirenko et al.,[35] with a few modifications. First, we used the ultra-low adhesion plates to ensure reproducible spheroid formation. Second, we decided to co-stain the cells with calcein-AM to obtain more information on the processes occurring in spheroids upon the addition of cytolytic peptides. Calcein-AM stains metabolically active cells and helps to identify the fraction of necrotic cells that is essential for the accurate determination of the IC50 values (Fig. 3). Three time points of incubation of spheroids with the peptides (10 min, 24 h and 72 h) were chosen for the experiments. The IC50 values and the closed/open isomer activity ratios (Table 2) were calculated, as in the monolayer cell culture experiments.
(§4) Essential experimental details have been previously published by us.[79]
(§5) The cells were maintained identically to a 2D cell culture protocol. After counting, the cells were seeded in 50 μL of medium in an ultralow attachment U-bottom black-wall 384-well plate (3830, Corning). The seeding density was chosen to obtain spheroids after 48 h of incubation that are compact enough to fit into 20× objective field of view (<800–1000 μm in diameter) after incubation with compounds. We seeded 2000 cells per well for 4T1 and 1000 cells per well for HEK-293, HeLa, HepG2, LLC and MDA-MB-231. After seeding, the plate was centrifuged at 40 g for 30 s and additionally shaken at 250 rpm for 1 min to shake all the cells off the walls of a well. After 48 h, the compounds were dispensed in 20 μL of medium (500, 100, 50, 5 and 1 μM for closed peptide photoforms; 100, 50, 10, 1 and 0.5 μM for open photoforms and GS). At 10 min, 24 h and 72 h post addition of compounds, the staining solution consisting of 112.5 μM of Hoechst 33342, 4.5 μM of calcein-AM (C1430, Thermo Fisher), 13.5 μM of propidium iodide and 10% of FBS in DPBS was added in 20 μL for 2 h. The fluorescent imaging was conducted in the confocal mode with a 20× objective lens and z-stack of 12–15 images with a 10 μm step. The collected data were processed using INCarta 1.13 and analyzed using GraphPad Prism 10.

Data set [4] deals with HeLa spheroids. Description: Cytotoxicity, three-dimensional (spheroid) assay. The note with it: human. Type of data set: cell-based.
Description: as §3, §4, §5

`CC(C)C[C@@H]1NC(=O)[C@H](CCCN)NC(=O)[C@H](C(C)C)NC(=O)[C@@H]2CCCN2C(=O)[C@@H](Cc2ccccc2)NC(=O)[C@H](CC(C)C)NC(=O)[C@H](CCCN)NC(=O)[C@H](C(C)C)NC(=O)[C@@H]2CCCN2C(=O)[C@@H](Cc2ccccc2)NC1=O` [Gramicidin S, gramicidin S] (cyclo(V[Orn]L[dF]PV[Orn]L[dF]P)): the “increase of CALR exposure” value in data set [1] is reported as 3 fold. Further, the “enhancement in CALR exposure” value in data set [2] is 4–7 fold. Further, the IC50 at 10 min in data set [3] (10 mins incubation) is 14.3 ± 11.6 µM. The IC50 at 24 h in data set [3] (24 hrs incubation) is 12.9 ± 1.1 µM. In addition, in data set [3] (72 hrs incubation), the IC50 at 72 h was 9 ± 1.1 µM. The IC50 in data set [4] (10 min) was 2.9 ± 1.5 µM; in data set [4] (24 h), 2.9 ± 1.6 µM.

Usually IC50 stands for the midpoint of a concentration-inhibition curve.
